Experiment [1] addresses T1, Sodium/glucose cotransporter 2 (Homo sapiens, UniProt P31639).
T1 sequence (P31639 whole entry): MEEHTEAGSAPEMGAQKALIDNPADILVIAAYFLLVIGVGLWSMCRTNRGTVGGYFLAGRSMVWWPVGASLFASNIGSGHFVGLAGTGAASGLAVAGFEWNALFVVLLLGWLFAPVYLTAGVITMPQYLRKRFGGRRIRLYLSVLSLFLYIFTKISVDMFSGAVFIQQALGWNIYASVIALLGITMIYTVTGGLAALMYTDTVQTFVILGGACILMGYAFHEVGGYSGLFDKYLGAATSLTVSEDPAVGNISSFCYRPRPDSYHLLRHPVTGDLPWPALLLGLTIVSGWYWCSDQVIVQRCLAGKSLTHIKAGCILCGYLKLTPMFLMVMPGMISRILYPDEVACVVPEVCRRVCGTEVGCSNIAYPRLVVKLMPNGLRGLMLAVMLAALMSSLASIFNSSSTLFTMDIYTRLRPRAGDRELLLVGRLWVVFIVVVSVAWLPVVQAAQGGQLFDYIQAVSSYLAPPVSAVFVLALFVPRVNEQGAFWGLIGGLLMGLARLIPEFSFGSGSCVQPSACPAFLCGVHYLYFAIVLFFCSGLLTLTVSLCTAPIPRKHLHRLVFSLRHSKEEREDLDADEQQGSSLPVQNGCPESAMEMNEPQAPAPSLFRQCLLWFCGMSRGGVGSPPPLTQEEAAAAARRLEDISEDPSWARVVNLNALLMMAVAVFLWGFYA
Put plainly: Inhibitory Activity Assay. Here is the method: (§1) The following method was used to determine the inhibitory activity of the compounds of the present invention on SGLT1 and SGLT2. The experimental method is summarized as follows:SGLT1 and SGLT2 transiently transferred HEK293 cells were seeded in a 96-well plate. The density of the cells was 1-1.5×104. The cells were cultured at 37° C. and 5% CO2 for 48 hours, and then washed twice with 200 μL sodium-free buffer. 90 μL sodium-containing buffer of the test compound at different concentrations was added to the well. Each test compound was repeated in three wells for each concentration. The cells were cultured at 37° C. for 15 minutes, then 10 μL (in number 0.1 μCi [14C]) Methyl α-D-glucopyranoside was added to each well of the 96-well plate. The cells were further cultured at 37° C. for 2 hours, then the supernatant was discarded. The cells were washed twice with pre-chilled sodium-free buffer and then dissolved in 100 μL NaOH (200 mM). 100 μL scintillation solution was added, and mixed well. Scintiloscope was used for the quantitative detection of 14C.

Experiment [2] has as its target T2, Sodium/glucose cotransporter 1 (Homo sapiens, UniProt P13866).
T2 sequence (P13866 whole entry): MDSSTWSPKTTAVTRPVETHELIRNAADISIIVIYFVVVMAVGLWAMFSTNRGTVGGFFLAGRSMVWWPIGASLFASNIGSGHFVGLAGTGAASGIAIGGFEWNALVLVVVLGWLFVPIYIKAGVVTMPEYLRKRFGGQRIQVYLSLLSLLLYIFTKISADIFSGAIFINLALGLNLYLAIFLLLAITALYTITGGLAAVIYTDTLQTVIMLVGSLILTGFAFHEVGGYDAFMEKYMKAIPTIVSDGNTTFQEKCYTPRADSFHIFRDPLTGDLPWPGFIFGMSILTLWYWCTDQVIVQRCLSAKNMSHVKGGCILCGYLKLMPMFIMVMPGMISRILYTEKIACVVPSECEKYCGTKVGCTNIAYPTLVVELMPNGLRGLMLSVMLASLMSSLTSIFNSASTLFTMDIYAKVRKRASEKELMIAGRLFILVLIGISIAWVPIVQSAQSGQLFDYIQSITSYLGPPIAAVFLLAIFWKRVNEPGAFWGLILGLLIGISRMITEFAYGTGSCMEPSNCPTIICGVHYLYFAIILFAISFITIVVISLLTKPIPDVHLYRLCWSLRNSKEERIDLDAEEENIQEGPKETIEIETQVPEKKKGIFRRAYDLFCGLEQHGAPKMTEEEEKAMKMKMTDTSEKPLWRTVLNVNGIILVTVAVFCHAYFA
Briefly: Inhibitory Activity Assay. On the procedure: as §1

Consider `Cc1cc(O)c([C@@H]2S[C@H](CO)[C@@H](O)[C@H](O)[C@H]2O)cc1Cc1ccc2c(c1)OCCO2` [US10011627, 6], for which the IC50 in experiment [1] is 2.59 nM; in experiment [2], 99.9 nM.
On the same counts, the results for `OC[C@H]1S[C@@H](c2ccc(C3CC3)c(Cc3ccc4c(c3)OCCO4)c2)[C@H](O)[C@@H](O)[C@@H]1O` [US10011627, 5] are 4.3 nM and 301 nM.

By IC50 is commonly meant the midpoint of a concentration-inhibition curve.

(Values after BindingDB's records for patent US10011627 (Youngene Therapeutics, 2018).)
